In general, MIC refers to the least concentration at which growth counts as inhibited. The term MBC denotes the smallest concentration meeting the test's criterion for killing. A higher MBC goes with weaker bactericidal potency.

Values after ≈ are worked out from the molar mass of the structure shown. “Also recorded” adds a separate entry of the source. Where two headings read alike, the source gives them in different places.

The text below walks through data of PMC10180054, “Design, Synthesis and Biological Evaluation of Novel Pleuromutilin Derivatives Containing 6-Chloro-1-R-1H-pyrazolo[3,4-d]pyrimidine-4-amino Side Chain” (Molecules, 2023).

Series [1] relates to Caco-2 cells. Put plainly: Cytotoxicity MTT assay. It counts as cell-based, human. As to conditions: 1~8 μg/mL, 16 h. As to the method: (§1) The presence of compounds can influence cellular basic physiological processes, suppress proliferation and even reduce cell survival, etc. In the community, MRSA generally causes respiratory infection. Therefore, cytotoxicity was evaluated to explore the effect of compounds 12c and 22c on the viability of the respiratory tract cells 16-HBE (human bronchial epithelial cell line). RAW 264.7 (mouse peritoneal macrophage cell line) and Caco-2 (human epithelial colorectal adenocarcinoma cell line) were also used to evaluate the cytotoxicity of compounds 12c and 22c by MTT assay.
(§2) Cytotoxicity of the test compounds was assessed using the conventional MTT method. RAW 264.7 murine macrophage cells, Caco-2 cells and 16-HBE were used in this experiment. The cells were seeded into 96-well plates at a density of 1.0 × 10^5 cells per well. After 4 h at 37 °C, the cells were treated with compounds 12c and 22c at various concentrations and incubated at 37 °C for 16 h. Next, MTT (0.5 mg/mL in PBS, 100 μL/well) was added sequentially to each well in a humidified atmosphere of 95% air and 5% CO2 incubator and the incubation continued for an additional four hours. After incubation, the medium was peeled off and DMSO (150 μL/well) was added to dissolve the cells, and then the incubation was continued for 30 min. At the end of this period, the absorbance was measured at 490 nm by a microplate spectrophotometer (BIO-TEK Instruments, Winooski, VT, USA).

For series [2], the system named is 16-HBE cells. Description: Cytotoxicity MTT assay. Format: cell-based, human. To be noted: 1~8 μg/mL, 16 h. As to the method:
as §1, §2

Series [3] deals with MRSA ATCC 43300. Description: MIC/MBC by broth dilution (CLSI). Format: cell-based, Staphylococcus aureus. As to conditions: for MIC: MRSA ATCC 43300, broth dilution, 24 h, 37 °C. An outline of the steps: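 CLSI broth dilution used twofold compound series from 64 to 0.0625 µg/mL (stocks in water with 2.5% DMSO and 2.5% Tween-80) and a final inoculum of 5 × 10^5 CFU/mL, in triplicate. For MBC, 25 µL from wells without visible growth was plated on MH agar and cultured 24 h at 37 °C.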
For orientation: Dilution methods test growth across graded concentrations, often in twofold steps.

The test system of series [4] is RAW 264.7 cells. Put plainly: Cytotoxicity MTT assay. It counts as cell-based, mouse. To be noted: 16 h. How it is done:
as §1
as §2, with “After incubation, the medium was peeled off and DMSO (150 μL/well) was added to dissolve the cells, and then the incubation was continued for 30 min.” left out
(Tetrazolium assays rely on reduction of a dye to a coloured formazan, in cell work by metabolically active cells.)

As to `C=C[C@]1(C)C[C@@H](OC(=O)CSc2ccc(Nc3nc(Cl)nc4c3cnn4-c3ccc(F)c(F)c3)cc2)[C@]2(C)[C@H](C)CC[C@]3(CCC(=O)[C@H]32)[C@@H](C)[C@@H]1O` [Compound 22c, 22-[4-(6-Chloro-1-(3,4-difluorophenyl)-1H-pyrazolo[3,4-d]pyrimidine-4-yl)amino-Phenylsulfanyl]-22-deoxypleuromutilin], the “effect on viability of Caco-2 cells” value in series [1] is on record as “no significant inhibition; also recorded: did not affect the viability”. For the same molecule, the “effect on viability of 16-HBE cells” value in series [2] is “no significant inhibition; also recorded: did not affect the viability”. The MIC in series [3] was 0.25/0.25 μg/mL; in series [3] (Staphylococcus aureus, read-out: MIC), 0.25 µg/mL (≈ 0.333 µM). Moreover, the MBC in series [3] (Staphylococcus aureus, MRSA ATCC 43300, 99.9% of the bacteria killed) was found to be 0.25 µg/mL (≈ 0.333 µM). Also, the MBC/MIC ratio in series [3] (against MRSA) was not above 2. The “effect on viability of RAW 264.7 cells” value in series [4] (8 µg/mL) is recorded as “slight inhibition”; in series [4] (≤8 μg/mL), “no significant inhibition”.
